{"source": "patent US20140213446A1", "about": "“HERBICIDAL COMPOSITIONS AND METHODS USING COMBINATIONS OF 4-AMINO-3-CHLORO-6-(4-CHLORO-2-FLUORO-3-METHOXYPHENYL)PYRIDINE-2-CARBOXYLIC ACID OR A DERIVATIVE THEREOF AND AN ARYLOXYPHENOXY PROPIONATE ACCASE INHIBITOR HERBICIDE” (DOW AGROSCIENCES LLC, priority 2013, published 2014)", "experiment_in_all_cases": "Postemergence foliar-applied herbicidal mixtures, weeds common to row crops", "assay_type_in_all_cases": "in vivo", "key": {"[1]": {"system": "OEOBI Oenothera biennis (evening primrose)", "source_text": "(§1) Evaluation of Postemergence Foliar-Applied Herbicidal Mixtures for Control of Weeds Common to Row Crops such as Corn and Soybeans. Seeds or nutlets of the desired test plant species were planted in a soil matrix prepared by mixing a loam or sandy loam soil (e.g., 28.6 percent silt, 18.8 percent clay, and 52.6 percent sand, with a pH of about 5.8 and an organic matter content of about 1.8 percent) and calcareous grit in an 80 to 20 ratio. The soil matrix was contained in plastic pots with a surface area of 84.6 cm^2 and a volume of 560 cubic centimeters (cm^3). When required to ensure good germination and healthy plants, a fungicide treatment and/or other chemical or physical treatment was applied. The plants were grown for 7-31 d in a greenhouse with an approximate 15 h photoperiod which was maintained at about 23-29° C. during the day and 22-28° C. during the night. Nutrients (Peters Excel® 15-5-15 5-Ca 2-Mg) and water were added on a regular basis and supplemental lighting was provided with overhead metal halide 1000-Watt lamps as necessary. The plants were employed for testing when they reached the first, second, or third true leaf stage.\n(§2) Treatment requirements were calculated based upon the rates being tested, the concentration of active ingredient or acid equivalent in the formulation, and a 12 mL application volume at a rate of 187 L/ha.\n(§3) Treatments consisted of the potassium (K^+) salt of 4-amino-3-chloro-6-(4-chloro-2-fluoro-3-methoxyphenyl)-pyridine-2-carboxylic acid (Cmpd 4) formulated as a soluble liquid (SL), the propargyl ester of 4-amino-3-chloro-6-(4-chloro-2-fluoro-3-methoxyphenyl)-pyridine-2-carboxylic acid (Cmpd 2) as technical grade material, or the benzyl ester of 4-amino-3-chloro-6-(4-chloro-2-fluoro-3-methoxyphenyl)-pyridine-2-carboxylic acid (Cmpd 3) as technical grade material and quizalofop-p-ethyl (Assure® II) alone and in combination. Forms of compound of formula (I) and quizalofop-P-ethyl were applied on an acid equivalent basis.\n(§4) For treatments comprised of formulated compounds, measured amounts of compounds were placed individually in 25 mL glass vials and diluted in a volume of 1.5% (v/v) Agri-Dex® crop oil concentrated to obtain 6× stock solutions. […] Application solutions were prepared by adding an appropriate amount of each stock solution (typically 2 mL) and diluted to the appropriate final concentrations with the addition of an appropriate amount of an aqueous mixture of 1.5% (v/v) crop oil concentrate and water so that the final spray solutions contained 1.25+/−0.05% (v/v) crop oil concentrate.\n(§5) For treatments comprised of formulated and technical compounds, weighed amounts of the technical materials were placed individually in 25 mL glass vials and dissolved in a volume of 97:3 v/v acetone/DMSO to obtain 6× stock solutions, and measured amounts of the formulated compounds were placed individually in 25 mL glass vials and diluted in a volume of 1.5% (v/v) crop oil concentrate or water to obtain 6× stock solutions. […] Application solutions were prepared by adding an appropriate amount of each stock solution (e.g., 2 mL) and diluted to the appropriate final concentrations with the addition of an appropriate amount of an aqueous mixture of 1.5% (v/v) crop oil concentrate and water so that the final spray solutions contained 1.25% (v/v) crop oil concentrate. When required, additional water and/or 97:3 v/v acetone/DMSO can be added to individual application solutions so that the final acetone and DMSO concentrations of the application solutions being compared are 16.2% and 0.5%, respectively.\n(§6) All stock solutions and applications solutions were visually inspected for compound compatibility prior to application. Compound requirements are based upon a 12 mL application volume at a rate of 187 liters per hectare (L/ha). […]"}, "[2]": {"system": "SORHA Sorghum halepense (L.) Pers. (Johnsongrass)", "source_text": "as §1, §2, §3, §4, §5, §6"}, "[3]": {"system": "LOLMU Lolium multiflorum Lam. (Italian ryegrass)", "source_text": "as §1, §2, §3, §4, §5, §6"}, "[4]": {"system": "AVEFA Avena fatua L. (wild oat)", "source_text": "as §1, §2, §3, §4, §5, §6"}, "[5]": {"system": "DIGSA Digitaria sanguinalis (L.) Scop. (large crabgrass)", "source_text": "as §1, §2, §3, §4, §5, §6"}}, "data": [{"molecule": "C#CCOC(=O)c1nc(-c2ccc(Cl)c(OC)c2F)cc(N)c1Cl", "note": "[Cmpd 2, propargyl ester of 4-amino-3-chloro-6-(4-chloro-2-fluoro-3-methoxyphenyl)-pyridine-2-carboxylic acid]", "values": [{"measurement": "Percent (%) injury rated visually 14 DAA Obs", "setting": "[1]; Cmpd 2 3.75 g ae/ha", "result": 65, "unit": "%"}, {"measurement": "Percent (%) injury rated visually 14 DAA Obs", "setting": "[2]; Cmpd 2 3.75 g ae/ha", "result": 0, "unit": "%"}, {"measurement": "Percent (%) injury rated visually 14 DAA Obs", "setting": "[2]; Cmpd 2 7.5 g ae/ha", "result": 0, "unit": "%"}, {"measurement": "Percent (%) injury rated visually 14 DAA Obs", "setting": "[2]; Cmpd 2 15 g ae/ha", "result": 10, "unit": "%"}]}, {"molecule": "COc1c(Cl)ccc(-c2cc(N)c(Cl)c(C(=O)OCc3ccccc3)n2)c1F", "note": "[Cmpd 3, benzyl ester of 4-amino-3-chloro-6-(4-chloro-2-fluoro-3-methoxyphenyl)-pyridine-2-carboxylic acid]", "values": [{"measurement": "Percent (%) injury rated visually 14 DAA Obs", "setting": "[3]; Cmpd 3 3.75 g ae/ha", "result": 15, "unit": "%"}, {"measurement": "Percent (%) injury rated visually 14 DAA Obs", "setting": "[3]; Cmpd 3 7.5 g ae/ha", "result": 50, "unit": "%"}, {"measurement": "Percent (%) injury rated visually 14 DAA Obs", "setting": "[3]; Cmpd 3 15 g ae/ha", "result": 40, "unit": "%"}, {"measurement": "Percent (%) injury rated visually 14 DAA Obs", "setting": "[4]; Cmpd 3 3.75 g ae/ha", "result": 10, "unit": "%"}, {"measurement": "Percent (%) injury rated visually 14 DAA Obs", "setting": "[4]; Cmpd 3 7.5 g ae/ha", "result": 0, "unit": "%"}, {"measurement": "Percent (%) injury rated visually 14 DAA Obs", "setting": "[4]; Cmpd 3 15 g ae/ha", "result": 0, "unit": "%"}, {"measurement": "Percent (%) injury rated visually 14 DAA Obs", "setting": "[5]; Cmpd 3 3.75 g ae/ha", "result": 40, "unit": "%"}, {"measurement": "Percent (%) injury rated visually 14 DAA Obs", "setting": "[5]; Cmpd 3 7.5 g ae/ha", "result": 40, "unit": "%"}, {"measurement": "Percent (%) injury rated visually 14 DAA Obs", "setting": "[5]; Cmpd 3 15 g ae/ha", "result": 35, "unit": "%"}]}, {"molecule": "potassium (K^+) salt of 4-amino-3-chloro-6-(4-chloro-2-fluoro-3-methoxyphenyl)-pyridine-2-carboxylic acid [Cmpd 4]", "values": [{"measurement": "Percent (%) injury rated visually 14 DAA Obs", "setting": "[1]; Cmpd 4 3.75 g ae/ha", "result": 50, "unit": "%"}, {"measurement": "Percent (%) injury rated visually 14 DAA Obs", "setting": "[1]; Cmpd 4 7.5 g ae/ha", "result": 80, "unit": "%"}, {"measurement": "Percent (%) injury rated visually 14 DAA Obs", "setting": "[3]; Cmpd 4 3.75 g ae/ha", "result": 0, "unit": "%"}, {"measurement": "Percent (%) injury rated visually 14 DAA Obs", "setting": "[3]; Cmpd 4 7.5 g ae/ha", "result": 15, "unit": "%"}, {"measurement": "Percent (%) injury rated visually 14 DAA Obs", "setting": "[3]; Cmpd 4 15 g ae/ha", "result": 40, "unit": "%"}, {"measurement": "Percent (%) injury rated visually 14 DAA Obs", "setting": "[2]; Cmpd 4 3.75 g ae/ha", "result": 0, "unit": "%"}, {"measurement": "Percent (%) injury rated visually 14 DAA Obs", "setting": "[2]; Cmpd 4 7.5 g ae/ha", "result": 0, "unit": "%"}, {"measurement": "Percent (%) injury rated visually 14 DAA Obs", "setting": "[2]; Cmpd 4 15 g ae/ha", "result": 10, "unit": "%"}, {"measurement": "Percent (%) injury rated visually 14 DAA Obs", "setting": "[5]; Cmpd 4 3.75 g ae/ha", "result": 20, "unit": "%"}, {"measurement": "Percent (%) injury rated visually 14 DAA Obs", "setting": "[5]; Cmpd 4 7.5 g ae/ha", "result": 15, "unit": "%"}, {"measurement": "Percent (%) injury rated visually 14 DAA Obs", "setting": "[5]; Cmpd 4 15 g ae/ha", "result": 40, "unit": "%"}]}]}
